The assay deals with RintRC_3892. Particulars: read-out: K0.5; 20 mM TES-KOH pH 8, 30-33 mM NaCl (Na+-dependent), 30°C, light; labelled compound; n = 5; actual K0.5 might be somewhat higher because of non-labelled bicarbonate.

From article PMC12596568, “Retention of a SulP-family bicarbonate transporter in a periplasmic N2-fixing cyanobacterial endosymbiont of an open ocean diatom” (The ISME Journal, 2025) come the findings set out here.

For `O=C(O)O` [bicarbonate], the Km was approximately 464 µM.
